In patent US12370235B2, “Synthetic, non-natural antimicrobial peptides inspired by Staphylococcus auricularis delta toxin” (University of Saskatchewan, priority 2021, dated 2025):
Ends that are not written are not given here.

What was measured:
[1] = test system: S. aureus ATCC BAA-44 (MRSA SCCmec type I); experiment: MIC, broth dilution; type: cell-based, Staphylococcus aureus; settings: Table 5; STIP3 variants, highest concentration 100 μg/mL
Summary of the method: (§1)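 Peptides (95% purity) were serially diluted 2-fold and mixed with bacteria diluted to OD 6×10^−4 in cation-adjusted Mueller Hinton broth. Standing cultures were incubated overnight at 37° C. MIC was the lowest peptide concentration with no observed growth.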

[2] = test system: S. aureus ATCC BAA-41 (MRSA SCCmec type II); experiment: MIC, broth dilution; type: cell-based, Staphylococcus aureus; settings: Table 5; STIP3 variants, highest concentration 100 μg/mL
Summary of the method: as §1

S. aureus ATCC 29213 = experiment: MIC, broth dilution; type: cell-based, Staphylococcus aureus; settings: Table 5; STIP3 variants, highest concentration 100 μg/mL
Summary of the method: as §1

[3] = test system: S. aureus ATCC 33592 (MRSA SCCmec type III); experiment: MIC, broth dilution; type: cell-based, Staphylococcus aureus; settings: Table 5; STIP3 variants, highest concentration 100 μg/mL
Summary of the method: as §1

[4] = test system: S. aureus ATCC BAA-1683 (MRSA SCCmec type IV); experiment: MIC, broth dilution; type: cell-based, Staphylococcus aureus; settings: Table 5; STIP3 variants, highest concentration 100 μg/mL
Summary of the method: as §1

[5] = test system: S. aureus ATCC BAA-2313 (MRSA SCCmec type XI); experiment: MIC, broth dilution; type: cell-based, Staphylococcus aureus; settings: Table 5; STIP3 variants, highest concentration 100 μg/mL
Summary of the method: as §1

[6] = test system: S. aureus ATCC BAA-2094 (MRSA SCCmec type V); experiment: MIC, broth dilution; type: cell-based, Staphylococcus aureus; settings: Table 5; STIP3 variants, highest concentration 100 μg/mL
Summary of the method: as §1

[7] = test system: S. aureus ATCC BAA-42 (MRSA SCCmec type VI); experiment: MIC, broth dilution; type: cell-based, Staphylococcus aureus; settings: Table 5; STIP3 variants, highest concentration 100 μg/mL
Summary of the method: as §1

C. albicans MYA-2876 = experiment: MIC, YPD broth; type: cell-based, Candida albicans; settings: Table 8
Summary of the method: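 Minimum inhibitory concentrations against Candida albicans were determined in YPD broth (10 g/L yeast extract, 20 g/L peptone, 20 g/L dextrose) using peptides of 95% purity. A 180 μl volume of diluted yeast was combined with 20 μl of peptide in a 2-fold dilution series in 96-well plates, with sterile water as control, then incubated standing overnight at 37° C.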

C. albicans Y537 = experiment: MIC, YPD broth; type: cell-based, Candida albicans; settings: Table 8
[8] = test system: Mannheimia haemolytica ATCC 33393; experiment: MIC, broth dilution; type: cell-based; settings: Table 11; highest concentration 25 μg/mL
Summary of the method: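 Peptides (95% purity) in 2-fold dilution series were mixed with M. haemolytica diluted to OD 6×10^−4 in cation-adjusted Mueller Hinton broth and incubated standing overnight at 37 °C. MIC was the lowest concentration with no visible growth.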

[9] = test system: Candida duobushaemulonii AR 392; experiment: MIC, YPD broth, CDC and FDA AR Candida isolate panel; type: cell-based; settings: Table 9 below the line: only 200 or 100 μg/mL tested; values reported as 100 are ≤100 μg/mL
Summary of the method: (§2)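 Cells are diluted to optical density […] and exposed to a 2-fold peptide series. Cultures then incubate overnight at 37° C without agitation.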

[10] = test system: Saccharomyces cerevisiae AR 400; experiment: as above; type: cell-based; settings: Table 9 below the line: only 200 or 100 μg/mL tested; values reported as 100 are ≤100 μg/mL
Summary of the method: as §2

[11] = test system: Candida haemulonii AR 393; experiment: as above; type: cell-based; settings: Table 9 below the line: only 200 or 100 μg/mL tested; values reported as 100 are ≤100 μg/mL
Summary of the method: as §2

[12] = test system: Saccharomyces cerevisiae AR 399; experiment: as above; type: cell-based; settings: Table 9 below the line: only 200 or 100 μg/mL tested; values reported as 100 are ≤100 μg/mL
Summary of the method: as §2

[13] = test system: Candida duobushaemulonii AR 394; experiment: as above; type: cell-based; settings: Table 9 below the line: only 200 or 100 μg/mL tested; values reported as 100 are ≤100 μg/mL
Summary of the method: as §2

[14] = test system: Candida haemulonii AR 395; experiment: as above; type: cell-based; settings: Table 9 below the line: only 200 or 100 μg/mL tested; values reported as 100 are ≤100 μg/mL
Summary of the method: as §2

[15] = test system: Candida lusitaniae AR 398; experiment: as above; type: cell-based; settings: Table 9 below the line: only 200 or 100 μg/mL tested; values reported as 100 are ≤100 μg/mL
Summary of the method: as §2

Candida krusei AR 397 = experiment: as above; type: cell-based; settings: Table 9 below the line: only 200 or 100 μg/mL tested; values reported as 100 are ≤100 μg/mL
Summary of the method: as §2

Kodamae ohmeri AR 396 = experiment: as above; type: cell-based; settings: Table 9 below the line: only 200 or 100 μg/mL tested; values reported as 100 are ≤100 μg/mL
Summary of the method: as §2

[16] = test system: Candida duobushaemulonii AR 391; experiment: as above; type: cell-based; settings: Table 9 below the line: only 200 or 100 μg/mL tested; values reported as 100 are ≤100 μg/mL
Summary of the method: as §2

[17] = Circular dichroism spectroscopy; type: physicochemical; settings: CD, 50% (v/v) TFE
Excerpt: The δ-toxins and the PSMs are characterized as α-helical peptides that form amyloid fibers^48. Although the propensity of individual peptides to form amyloids is correlated to their cytotoxicity^49, the amyloid form is not directly implicated in cell membrane disruption^50. […] CD spectroscopy was used to investigate the secondary structure of a subset of peptides within the collection (FIG. 4A, Table 5). The STIP variants adopted α-helical forms in 50% (v/v) trifluoroethanol (TFE), though unlike the full-length S. auricularis δ-toxin, they were unstructured in water. […] Specifically, peptides characterized by the greatest and least α-helical content in TFE had MICs above the highest tested threshold.
Circular dichroism spectroscopy. Peptides were dissolved in water at concentrations between 0.3 and 0.5 mg/mL. CD spectra were recorded on an Applied Photophysics Chirascan Plus CD spectrophotometer at room temperature in a 0.1 cm path-length quartz cuvette. Spectra were recorded from 180 to 260 nm.

[18] = test system: S. aureus / MRSA (ATCC MP-2 panel); type: cell-based, Staphylococcus aureus; settings: MIC screen, in words
Description: In order to begin to characterize STIP3-1 and potential sites amenable to modification, an alanine scanning experiment was performed. A total of 16 peptides with single alanine substitutions were assessed to inform on the importance of individual residues to antimicrobial activity. […] Next a series of thirty STIP3-1 variants were designed, guided by the aforementioned alanine scan and a previous report that the central α-helical core of the S. aureus δ-toxin could be converted into AMP through the inclusion of additional lysine residues^39. The collection included ten members with single substitutions relative to STIP3-1 and others that incorporated a number of changes that were designed to increase overall and local cationic charge as well as hydrophobic character (Table 5). Each of the STIPs was screened, including STIP3-1 to STIP-31, for antibiotic activity against a methicillin-sensitive S. aureus test organism and a panel of 7 MRSA strains defined by distinct SCCmec genotypes (FIG. 2; ATCC MP-2).
Determination of minimum inhibitory concentrations. The MICs were measured for bioactive peptides identified from the initial screen. For bacterial studies, cation-adjusted Mueller Hinton (MH) broth was used as the growth medium whereas YPD was used for C. albicans. Bacterial cultures were diluted to a OD value of 6×10^−4 in MH broth and a 180 μl volume was mixed with 20 μl of peptide arrayed as 2-fold dilution series in a 96-well plate. For the positive control, 20 μl of sterile water was used. Plates were incubated as standing cultures overnight at 37° C. The lowest peptide concentration that resulted no observed microbial growth after an overnight treatment was defined as the MIC.

Substance	MIC S. aureus ATCC BAA 44 (I) [1]	MIC S. aureus ATCC BAA 41 (II) [2]	MIC S. aureus ATCC 29213 (S. aureus ATCC 29213)	MIC S. aureus ATCC 33592 (III) [3]	MIC S. aureus ATCC BAA 1683 (IV) [4]	MIC S. aureus ATCC BAA 2313 (XI) [5]	MIC S. aureus ATCC BAA 2094 (V) [6]	MIC S. aureus ATCC BAA 42 (VI) [7]	MIC C. albicans MYA-2876 (C. albicans MYA-2876)	MIC (μg/mL) M. haemolytica [8]	MIC (μg/mL) Candida duobushaemulonii AR 392 [9]	MIC (μg/mL) Saccharomyces cerevisiae AR 400 [10] [µg/mL]	MIC (μg/mL) Candida haemulonii AR 393 [11]	MIC (μg/mL) Saccharomyces cerevisiae AR 399 [12] [µg/mL]	MIC (μg/mL) Candida duobushaemulonii AR 394 [13]	MIC (μg/mL) Candida haemulonii AR 395 [14]	MIC (μg/mL) Candida lusitaniae AR 398 [15] [µg/mL]	MIC (μg/mL) Candida krusei AR 397 (Candida krusei AR 397)	MIC (μg/mL) Kodamae ohmeri AR 396 (Kodamae ohmeri AR 396)	MIC (μg/mL) Candida duobushaemulonii AR 391 [16]	also measured
TVGGLVKWILATVKKFA-NH2 [STIP3-28, TVGGLVKWILATVKKFA-NH2]	12.5 µg/mL	12.5 µg/mL	25 µg/mL	6.25 µg/mL	12.5 µg/mL	12.5 µg/mL	6.25 µg/mL	12.5 µg/mL	12.5 µg/mL	12.5 µg/mL	> (values below the line were determined using two concentrations of peptide 200 or 100 μg/mL)	≤ 100	> (values below the line were determined using two concentrations of peptide 200 or 100 μg/mL)	≤ 100	> (values below the line were determined using two concentrations of peptide 200 or 100 μg/mL)	≤ 100 µg/mL	≤ 100	≤ 100 µg/mL	≤ 100 µg/mL	> (values below the line were determined using two concentrations of peptide 200 or 100 μg/mL)	MIC C. albicans Y537 (C. albicans Y537): 25 µg/mL; α helicity (%) [17]: 75%
TVGVLVKWILNVVAKFA [STIP3-24, TVGVLVKWILNVVAKFA]	> (no inhibition was observed at the highest concentration of peptide tested: 100 μg/mL for the STIP3 variants)	> (no inhibition was observed at the highest concentration of peptide tested: 100 μg/mL for the STIP3 variants)	> (no inhibition was observed at the highest concentration of peptide tested: 100 μg/mL for the STIP3 variants)	> (no inhibition was observed at the highest concentration of peptide tested: 100 μg/mL for the STIP3 variants)	> (no inhibition was observed at the highest concentration of peptide tested: 100 μg/mL for the STIP3 variants)	> (no inhibition was observed at the highest concentration of peptide tested: 100 μg/mL for the STIP3 variants)	> (no inhibition was observed at the highest concentration of peptide tested: 100 μg/mL for the STIP3 variants)	> (no inhibition was observed at the highest concentration of peptide tested: 100 μg/mL for the STIP3 variants)	> (> symbol indicates that no inhibition was observed at the highest concentration of peptide tested: 100 μg/mL)	> (> symbol indicates that no inhibition was observed at the highest concentration of peptide tested: 25 μg/mL)	> (values below the line were determined using two concentrations of peptide 200 or 100 μg/mL)	≤ 100	> (values below the line were determined using two concentrations of peptide 200 or 100 μg/mL)	≤ 100	> (values below the line were determined using two concentrations of peptide 200 or 100 μg/mL)	> (values below the line were determined using two concentrations of peptide 200 or 100 μg/mL)	≤ 100	> (values below the line were determined using two concentrations of peptide 200 or 100 μg/mL)	> (values below the line were determined using two concentrations of peptide 200 or 100 μg/mL)	> (values below the line were determined using two concentrations of peptide 200 or 100 μg/mL)	inhibition of S. aureus [18]: incapable of inhibiting S. aureus
